System: 12 single or co-culture in vitro tissue models of primary cells
Assay: Culture/co-culture cell model panel, extracellular biomarkers (DiscoveRx); as to CCL2/MCP-1: reference of the scale not given here; as to CD141/Thrombomodulin: reference of the scale not given here; as to CD142/Tissue Factor: reference of the scale not given here; as to CD38: reference of the scale not given here; as to CD40: reference of the scale not given here; as to CD69: reference of the scale not given here; as to CXCL8/IL-8: reference of the scale not given here; as to CXCL9/MIG: reference of the scale not given here; as to IL-1alpha: reference of the scale not given here; as to M-CSF: reference of the scale not given here; as to PBMC Cytotoxicity: reference of the scale not given here; as to Proliferation: reference of the scale not given here; as to SRB: reference of the scale not given here; as to sPGE2: reference of the scale not given here; as to sTNF-alpha: reference of the scale not given here
Assay type: cell-based, human

Cc1n[nH]c2ncc(C(=O)N3CCC[C@H]3c3ccc(Cl)cc3)cc12 [CMPD4]
IL-1alpha (LPS Huvec+PBMC, 1.11E3 nM): 0.016
M-CSF (LPS Huvec+PBMC, 1.11E3 nM): 0.016
SRB (LPS Huvec+PBMC, 1.11E3 nM): -0.126
sPGE2 (LPS Huvec+PBMC, 1.11E3 nM): 0.239
sTNF-alpha (LPS Huvec+PBMC, 1.11E3 nM): 0.133
CCL2/MCP-1 (LPS Huvec+PBMC, 1.23E2 nM): -0.026
CD40 (LPS Huvec+PBMC, 1.23E2 nM): -0.152
CD62E/E-Selectin (LPS Huvec+PBMC, 1.23E2 nM): 0.006
CD69 (LPS Huvec+PBMC, 1.23E2 nM): 0.00187
CD106/VCAM-1 (LPS Huvec+PBMC, 1.23E2 nM): 0.093
CD141/Thrombomodulin (LPS Huvec+PBMC, 1.23E2 nM): 0.087
CD142/Tissue Factor (LPS Huvec+PBMC, 1.23E2 nM): 0.139
CXCL8/IL-8 (LPS Huvec+PBMC, 1.23E2 nM): -0.075
IL-1alpha (LPS Huvec+PBMC, 1.23E2 nM): 0.044
M-CSF (LPS Huvec+PBMC, 1.23E2 nM): -0.000401
SRB (LPS Huvec+PBMC, 1.23E2 nM): -0.089
sPGE2 (LPS Huvec+PBMC, 1.23E2 nM): 0.245
sTNF-alpha (LPS Huvec+PBMC, 1.23E2 nM): 0.048
CCL2/MCP-1 (LPS Huvec+PBMC, 1.37E1 nM): 0.005
CD40 (LPS Huvec+PBMC, 1.37E1 nM): -0.187
CD62E/E-Selectin (LPS Huvec+PBMC, 1.37E1 nM): -0.020
CD69 (LPS Huvec+PBMC, 1.37E1 nM): -0.009
CD106/VCAM-1 (LPS Huvec+PBMC, 1.37E1 nM): 0.066
CD141/Thrombomodulin (LPS Huvec+PBMC, 1.37E1 nM): 0.056
CD142/Tissue Factor (LPS Huvec+PBMC, 1.37E1 nM): 0.073
CXCL8/IL-8 (LPS Huvec+PBMC, 1.37E1 nM): -0.037
IL-1alpha (LPS Huvec+PBMC, 1.37E1 nM): -0.072
M-CSF (LPS Huvec+PBMC, 1.37E1 nM): 0.00323
SRB (LPS Huvec+PBMC, 1.37E1 nM): -0.040
sPGE2 (LPS Huvec+PBMC, 1.37E1 nM): 0.171
sTNF-alpha (LPS Huvec+PBMC, 1.37E1 nM): 0.038
CCL2/MCP-1 (LPS Huvec+PBMC, 3.33E3 nM): -0.067
CD40 (LPS Huvec+PBMC, 3.33E3 nM): -0.112
CD62E/E-Selectin (LPS Huvec+PBMC, 3.33E3 nM): 0.00461
CD69 (LPS Huvec+PBMC, 3.33E3 nM): 0.059
CD106/VCAM-1 (LPS Huvec+PBMC, 3.33E3 nM): 0.096
CD141/Thrombomodulin (LPS Huvec+PBMC, 3.33E3 nM): 0.075
CD142/Tissue Factor (LPS Huvec+PBMC, 3.33E3 nM): 0.108
CXCL8/IL-8 (LPS Huvec+PBMC, 3.33E3 nM): -0.193
IL-1alpha (LPS Huvec+PBMC, 3.33E3 nM): 0.066
M-CSF (LPS Huvec+PBMC, 3.33E3 nM): 0.023
SRB (LPS Huvec+PBMC, 3.33E3 nM): -0.130
sPGE2 (LPS Huvec+PBMC, 3.33E3 nM): 0.179
sTNF-alpha (LPS Huvec+PBMC, 3.33E3 nM): 0.057
CCL2/MCP-1 (LPS Huvec+PBMC, 3.70E2 nM): -0.029
CD40 (LPS Huvec+PBMC, 3.70E2 nM): -0.162
CD62E/E-Selectin (LPS Huvec+PBMC, 3.70E2 nM): -0.010
CD69 (LPS Huvec+PBMC, 3.70E2 nM): 0.00559
CD106/VCAM-1 (LPS Huvec+PBMC, 3.70E2 nM): 0.093
CD141/Thrombomodulin (LPS Huvec+PBMC, 3.70E2 nM): 0.092
CD142/Tissue Factor (LPS Huvec+PBMC, 3.70E2 nM): 0.144
CXCL8/IL-8 (LPS Huvec+PBMC, 3.70E2 nM): -0.137
IL-1alpha (LPS Huvec+PBMC, 3.70E2 nM): 0.044
M-CSF (LPS Huvec+PBMC, 3.70E2 nM): -0.012
SRB (LPS Huvec+PBMC, 3.70E2 nM): -0.096
sPGE2 (LPS Huvec+PBMC, 3.70E2 nM): 0.189
sTNF-alpha (LPS Huvec+PBMC, 3.70E2 nM): 0.099
CCL2/MCP-1 (LPS Huvec+PBMC, 4.12E1 nM): -0.00282
CD40 (LPS Huvec+PBMC, 4.12E1 nM): -0.180
CD62E/E-Selectin (LPS Huvec+PBMC, 4.12E1 nM): -0.032
CD69 (LPS Huvec+PBMC, 4.12E1 nM): 0.017
CD106/VCAM-1 (LPS Huvec+PBMC, 4.12E1 nM): 0.090
CD141/Thrombomodulin (LPS Huvec+PBMC, 4.12E1 nM): 0.090
CD142/Tissue Factor (LPS Huvec+PBMC, 4.12E1 nM): 0.115
CXCL8/IL-8 (LPS Huvec+PBMC, 4.12E1 nM): -0.044
IL-1alpha (LPS Huvec+PBMC, 4.12E1 nM): 0.017
M-CSF (LPS Huvec+PBMC, 4.12E1 nM): -0.0023
SRB (LPS Huvec+PBMC, 4.12E1 nM): -0.053
sPGE2 (LPS Huvec+PBMC, 4.12E1 nM): 0.230
sTNF-alpha (LPS Huvec+PBMC, 4.12E1 nM): 0.081
CCL2/MCP-1 (LPS Huvec+PBMC, 4.57E0 nM): -0.00276
CD40 (LPS Huvec+PBMC, 4.57E0 nM): -0.174
CD62E/E-Selectin (LPS Huvec+PBMC, 4.57E0 nM): -0.017
CD69 (LPS Huvec+PBMC, 4.57E0 nM): 0.019
CD106/VCAM-1 (LPS Huvec+PBMC, 4.57E0 nM): 0.051
CD141/Thrombomodulin (LPS Huvec+PBMC, 4.57E0 nM): 0.058
CD142/Tissue Factor (LPS Huvec+PBMC, 4.57E0 nM): 0.062
CXCL8/IL-8 (LPS Huvec+PBMC, 4.57E0 nM): -0.024
IL-1alpha (LPS Huvec+PBMC, 4.57E0 nM): -0.00758
M-CSF (LPS Huvec+PBMC, 4.57E0 nM): -0.005
SRB (LPS Huvec+PBMC, 4.57E0 nM): -0.016
sPGE2 (LPS Huvec+PBMC, 4.57E0 nM): 0.124
sTNF-alpha (LPS Huvec+PBMC, 4.57E0 nM): -0.057
CCL2/MCP-1 (SAg, 1.00E4 nM): -0.077
CD38 (SAg, 1.00E4 nM): -0.031
CD40 (SAg, 1.00E4 nM): -0.104
CD62E/E-Selectin (SAg, 1.00E4 nM): 0.099
CD69 (SAg, 1.00E4 nM): 0.140
CXCL8/IL-8 (SAg, 1.00E4 nM): -0.277
CXCL9/MIG (SAg, 1.00E4 nM): -0.047
PBMC Cytotoxicity (SAg, 1.00E4 nM): 0.013
Proliferation (SAg, 1.00E4 nM): -0.003
SRB (SAg, 1.00E4 nM): -0.133
CCL2/MCP-1 (SAg, 1.11E3 nM): -0.125
CD38 (SAg, 1.11E3 nM): -0.063
CD40 (SAg, 1.11E3 nM): -0.103
CD62E/E-Selectin (SAg, 1.11E3 nM): 0.135
CD69 (SAg, 1.11E3 nM): 0.166
CXCL8/IL-8 (SAg, 1.11E3 nM): -0.272
CXCL9/MIG (SAg, 1.11E3 nM): -0.097
PBMC Cytotoxicity (SAg, 1.11E3 nM): 0.007
Proliferation (SAg, 1.11E3 nM): -0.000932
SRB (SAg, 1.11E3 nM): -0.168
CCL2/MCP-1 (SAg, 1.23E2 nM): -0.092
CD38 (SAg, 1.23E2 nM): -0.087
CD40 (SAg, 1.23E2 nM): -0.136
CD62E/E-Selectin (SAg, 1.23E2 nM): 0.130
CD69 (SAg, 1.23E2 nM): 0.140
CXCL8/IL-8 (SAg, 1.23E2 nM): -0.108
CXCL9/MIG (SAg, 1.23E2 nM): -0.076
PBMC Cytotoxicity (SAg, 1.23E2 nM): -0.032
Proliferation (SAg, 1.23E2 nM): 0.030
SRB (SAg, 1.23E2 nM): -0.149
CCL2/MCP-1 (SAg, 1.37E1 nM): -0.019
CD38 (SAg, 1.37E1 nM): -0.064
CD40 (SAg, 1.37E1 nM): -0.117
CD62E/E-Selectin (SAg, 1.37E1 nM): 0.101
CD69 (SAg, 1.37E1 nM): 0.100
CXCL8/IL-8 (SAg, 1.37E1 nM): -0.060
CXCL9/MIG (SAg, 1.37E1 nM): -0.029
PBMC Cytotoxicity (SAg, 1.37E1 nM): 0.005
Proliferation (SAg, 1.37E1 nM): -0.021
SRB (SAg, 1.37E1 nM): -0.058
CCL2/MCP-1 (SAg, 3.33E3 nM): -0.104
CD38 (SAg, 3.33E3 nM): -0.056
CD40 (SAg, 3.33E3 nM): -0.138
CD62E/E-Selectin (SAg, 3.33E3 nM): 0.125
CD69 (SAg, 3.33E3 nM): 0.148
CXCL8/IL-8 (SAg, 3.33E3 nM): -0.259
CXCL9/MIG (SAg, 3.33E3 nM): -0.085
PBMC Cytotoxicity (SAg, 3.33E3 nM): -0.00278
Proliferation (SAg, 3.33E3 nM): -0.016
SRB (SAg, 3.33E3 nM): -0.179
CCL2/MCP-1 (SAg, 3.70E2 nM): -0.123
CD38 (SAg, 3.70E2 nM): -0.080
CD40 (SAg, 3.70E2 nM): -0.137
CD62E/E-Selectin (SAg, 3.70E2 nM): 0.119
CD69 (SAg, 3.70E2 nM): 0.128
CXCL8/IL-8 (SAg, 3.70E2 nM): -0.284
CXCL9/MIG (SAg, 3.70E2 nM): -0.085
PBMC Cytotoxicity (SAg, 3.70E2 nM): -0.040
Proliferation (SAg, 3.70E2 nM): -0.011
SRB (SAg, 3.70E2 nM): -0.146
CCL2/MCP-1 (SAg, 4.12E1 nM): -0.056
CD38 (SAg, 4.12E1 nM): -0.062
CD40 (SAg, 4.12E1 nM): -0.124
CD62E/E-Selectin (SAg, 4.12E1 nM): 0.124
CD69 (SAg, 4.12E1 nM): 0.126
CXCL8/IL-8 (SAg, 4.12E1 nM): -0.119
CXCL9/MIG (SAg, 4.12E1 nM): -0.046
PBMC Cytotoxicity (SAg, 4.12E1 nM): -0.001
Proliferation (SAg, 4.12E1 nM): 0.000938
SRB (SAg, 4.12E1 nM): -0.102
CCL2/MCP-1 (SAg, 4.57E0 nM): 0.040
CD38 (SAg, 4.57E0 nM): -0.052
CD40 (SAg, 4.57E0 nM): -0.084
CD62E/E-Selectin (SAg, 4.57E0 nM): 0.070
CD69 (SAg, 4.57E0 nM): 0.062
CXCL8/IL-8 (SAg, 4.57E0 nM): 0.007
CXCL9/MIG (SAg, 4.57E0 nM): -0.031
PBMC Cytotoxicity (SAg, 4.57E0 nM): 0.015
Proliferation (SAg, 4.57E0 nM): 0.009
SRB (SAg, 4.57E0 nM): 0.029
